Laboratory results from ChEMBL document CHEMBL1134255, “Synthesis and evaluation of efavirenz (Sustiva) analogues as HIV-1 reverse transcriptase inhibitors: replacement of the cyclopropylacetylene side chain” (2001).

How the values were obtained:
[1] = system: Human immunodeficiency virus 1; assay: Antiviral activity was evaluated against wild-type HIV-1 virus; type: functional
[2] = system: Human immunodeficiency virus type 1 reverse transcriptase (Human immunodeficiency virus 1), Q72547 [K103N]

SMILES | IC90 [1] [nM] | IC90 [2] [nM]
CCCOC1(C(F)(F)F)OC(=O)Nc2ccc(Cl)cc21 (stereo not drawn) | 5.81 | 
O=C1Nc2ccc(Cl)cc2C(C#Cc2ccsc2)(C(F)(F)F)O1 (stereo not drawn) | 4.47 | 106
CC(C)=CCOC1(C(F)(F)F)OC(=O)Nc2ccc(F)cc21 (stereo not drawn) | 2.98 | 107
CC(C)=CCOC1(C(F)(F)F)OC(=O)Nc2ccc(F)c(F)c21 (stereo not drawn) | 1.54 | 65
COCCOC1(C(F)(F)F)OC(=O)Nc2ccc(Cl)cc21 (stereo not drawn) | 61.4 | 
O=C1Nc2ccc(Cl)cc2C(C#Cc2ccco2)(C(F)(F)F)O1 (stereo not drawn) | 3.8 | 152
N#CCCOC1(C(F)(F)F)OC(=O)Nc2ccc(Cl)cc21 (stereo not drawn) | > 1500 | 
O=C1Nc2ccc(F)c(F)c2C(C#Cc2ccsc2)(C(F)(F)F)O1 (stereo not drawn) | 2.34 | 139
O=C1Nc2ccc(Cl)cc2C(C#Cc2cncs2)(C(F)(F)F)O1 (stereo not drawn) | 6.69 | 
C=CCOC1(C(F)(F)F)OC(=O)Nc2ccc(Cl)cc21 (stereo not drawn) | 3.9 | 
O=C1Nc2ccc(Cl)cc2C(C#Cc2cccnc2)(C(F)(F)F)O1 (stereo not drawn) | 3.97 | 145
O=C1Nc2ccc(Cl)cc2C(OCCC2CC2)(C(F)(F)F)O1 (stereo not drawn) | 8.04 | 
O=C1Nc2ccc(F)cc2C(C#Cc2ccoc2)(C(F)(F)F)O1 (stereo not drawn) | 2.52 | 369
O=C1Nc2ccc(F)cc2C(C#Cc2cccs2)(C(F)(F)F)O1 (stereo not drawn) | 2.93 | 
O=C1Nc2ccc(F)c(F)c2C(OCC=C(Cl)Cl)(C(F)(F)F)O1 (stereo not drawn) | 6.35 | 183
CC(C)=CCOC1(C(F)(F)F)OC(=O)Nc2ccc(Cl)cc21 (stereo not drawn) | 2.68 | 83
C/C=C\COC1(C(F)(F)F)OC(=O)Nc2ccc(Cl)cc21 (stereo not drawn) | 4.35 | 237
O=C1Nc2ccc(F)c(F)c2C(C#Cc2ccoc2)(C(F)(F)F)O1 (stereo not drawn) | 3.21 | 280
O=C1Nc2ccc(F)c(F)c2C(C#Cc2cccs2)(C(F)(F)F)O1 (stereo not drawn) | 2.23 | 156
C/C=C/COC1(C(F)(F)F)OC(=O)Nc2ccc(F)cc21 (stereo not drawn) | 8.85 | 1150
C/C=C/COC1(C(F)(F)F)OC(=O)Nc2ccc(Cl)cc21 (stereo not drawn) | 5.6 | 404
O=C1Nc2ccc(F)cc2C(C#Cc2ccco2)(C(F)(F)F)O1 (stereo not drawn) | 2.58 | 

SMILES | IC90 [1] [nM] | IC90 [2] [nM]
C=CCCOC1(C(F)(F)F)OC(=O)Nc2ccc(Cl)cc21 (stereo not drawn) | 13.7 | 
O=C1Nc2ccc(Cl)cc2C(OCC(F)(F)C(F)(F)F)(C(F)(F)F)O1 (stereo not drawn) | 651 | 
O=C1Nc2ccc(F)c(F)c2C(C#Cc2ccccn2)(C(F)(F)F)O1 (stereo not drawn) | 6.78 | 
CCCCOC1(C(F)(F)F)OC(=O)Nc2ccc(Cl)cc21 (stereo not drawn) | 10.2 | 989
CC#CCOC1(C(F)(F)F)OC(=O)Nc2ccc(Cl)cc21 (stereo not drawn) | 3.13 | 310
O=C1Nc2ccc(F)cc2C(OCC=C(Cl)Cl)(C(F)(F)F)O1 (stereo not drawn) | 11.9 | 
O=C1Nc2ccc(Cl)cc2C(OCCc2ccccc2)(C(F)(F)F)O1 (stereo not drawn) | 167 | 
O=C1Nc2ccc(F)cc2C(C#Cc2cccnc2)(C(F)(F)F)O1 (stereo not drawn) | 2.56 | 329
O=C1Nc2ccc(Cl)cc2C(C#Cc2ccncc2)(C(F)(F)F)O1 (stereo not drawn) | 102 | 
O=C1Nc2ccc(Cl)cc2C(C#Cc2ccccn2)(C(F)(F)F)O1 (stereo not drawn) | 5.39 | 1110
O=C1Nc2ccc(F)cc2C(C#Cc2ccccn2)(C(F)(F)F)O1 (stereo not drawn) | 12.2 | 
C=CCOC1(C(F)(F)F)OC(=O)Nc2ccc(F)c(F)c21 (stereo not drawn) | 6.47 | 1620
O=C1Nc2ccc(F)cc2C(C#Cc2ccsc2)(C(F)(F)F)O1 (stereo not drawn) | 2.55 | 193
O=C1Nc2ccc(F)c(F)c2C(C#Cc2cccnc2)(C(F)(F)F)O1 (stereo not drawn) | 2.23 | 59.3
O=C1Nc2ccc(F)c(F)c2C(C#Cc2ccco2)(C(F)(F)F)O1 (stereo not drawn) | 3.79 | 
O=C1Nc2ccc(Cl)cc2C(OCc2cccnc2)(C(F)(F)F)O1 (stereo not drawn) | 75.3 | 
O=C1Nc2ccc(Cl)cc2C(C#Cc2ccoc2)(C(F)(F)F)O1 (stereo not drawn) | 3.8 | 322
CC(C)CCOC1(C(F)(F)F)OC(=O)Nc2ccc(Cl)cc21 (stereo not drawn) | 10.1 | 286
CCOC1(C(F)(F)F)OC(=O)Nc2ccc(Cl)cc21 (stereo not drawn) | 18.3 | 
O=C1Nc2ccc(Cl)cc2C(OCC2CC2)(C(F)(F)F)O1 (stereo not drawn) | 7.7 | 
O=C1Nc2ccc(Cl)cc2C(OCc2ccccc2)(C(F)(F)F)O1 (stereo not drawn) | 17.9 | 
O=C1Nc2ccc(Cl)cc2C(OCC=C(Cl)Cl)(C(F)(F)F)O1 (stereo not drawn) | 9.5 | 242
